In patent US20230371508A1, “COMPOSITIONS AND METHODS FOR KILLING INSECT AND NON-INSECT PESTS” (The United States of America, as represented by the …, priority 2018, published 2023):
Converted amounts (≈) assume the structure as drawn. Read-outs that look alike come from different tables or passages of the source.

Key:
L. dispar larvae = assay: Larvicidal toxicity, treated filter paper in Petri dish; format: in vivo; conditions: for LC50 (95% CL): 1st stage larvae, 24 hr; for larvicidal toxicity against L. dispar (in words): in vivo
Procedure: Toxicities of MB and some compounds of formula 1 on L. dispar larvae: The bioassays were carried out in plastic Petri dish loaded with filter paper, following a published procedure (Nielsen 2008). 600 μL acetone solution of one derivative with different concentrations was loaded onto the filter paper (90 mm diameter) evenly, and the filter paper was dried for 2 min and then put into the bottom of Petri dish. 10 L. dispar larvae were put onto the Petri dish and covered with a lid. 30 larvae were used for each amount. The mortality was assessed after 24 hr.

H. halys nymphs = assay: Nymphicidal toxicity, treated filter paper in glass vial; format: in vivo
Procedure: Toxicities of MB, some compounds of formula 1, and commercial pesticides on H. halys nymphs: The bioassays were carried out in glass vials (20 mL), following a published procedure (Nielsen, A. L., et al., J. Econ. Entomol., 101: 1439-1442 (2008)). Filter paper was cut into round shape pieces (2.4 cm diameter). 50 μL acetone solution of one derivative or commercial pesticide with different concentrations was loaded onto the filter paper evenly, and the filter paper was dried for 1 min and then put into the bottom of vial. A small piece of green bean was put on the filter paper in the vial as food source. Different stages of H. halys nymphs were introduced into the vial and capped with a cotton ball. For each stage, 30 nymphs were used for each amount. For the nymphs of the first instar, 10 nymphs were put into 1 vial. For the nymphs of the second and third instar, 5 nymphs were put into 1 vial. For the nymphs of the fourth instar, 3 nymphs were put into 1 vial. For the nymphs of the fifth instar, 2 nymphs were put into 1 vial. The mortality was assessed after 24 hr.

D. suzukii = assay: Insecticidal activity on larvae and pupae development and adult emergence in pre-infested blueberries (dip); format: in vivo, Drosophila suzukii; conditions: for Adults / Larvae / Pupae: pre-infested berries soaked 2 min in 1% solution, assessed after 10 days at room temperature, mean of three replicates (standard error)
Procedure: Impacts of MB and other compounds on D. suzukii control: To investigate the acute toxicity of some compounds of formula 1 against D. suzukii, a published procedure was followed (Cuthbertson, A. G. S., et al., Insects, 5: 488-498 (2014)). First, mixed-sex adults D. suzukii (100) were introduced into a plastic cage (30×30×30 cm) and reared on blueberries (100) for 4 days. After that, the infested blueberries were taken out from the cage. Half of the blueberries (50) were dipped in 100 mL aqueous emulsion of each compound listed in Table 1 at 1% concentration for 2 min as treatment, while the other half of the blueberries (50) were dipped in DI water for 2 min as blank control. Then the corresponding blueberries were separately taken out, placed in two different Petri dishes, and allowed to air dry for 2 h. Second, treatment and blank control blueberries were respectively stored in two plastic cups (32 oz) with closed caps and incubated at room temperature for 10 days. The emergence of adults was then subsequently assessed. The developments of larvae and pupae were further inspected by dissection of the treatment and blank control berries. Each treatment and blank control was repeated three times.

S. invicta workers [1] = system: S. invicta workers
Procedure: Fire ant bioassays were conducted in USDA, ARS Stoneville laboratory at 25° C., 80% R.H. with a 12:12 (L:D) photoperiod. Contact toxicities of MB and some compounds of formula 1 against fire ants: Topical application was used for contact toxicity bioassay. Only large workers were used for a purpose of relatively uniform body weight and ease of handling. For all compounds, acetone was used as a solvent. The solution was applied using a 0.779 μl capillary tube. Two experiments were conducted for assessing contact toxicity. […] In order to investigate the structure-activity relationship, LD50 values were also established for MB and EB. […] For each LD50 value, 5 doses of benzoates were used. Each dose was replicated 3 times. Each replicate consisted of 13 to 18 ants. Treated ants were placed in a 30-ml capped cup and dead ants were counted after 24 h.

S. invicta workers [2] = assay: Fumigant toxicity in sealed glass flask; format: in vivo, Solenopsis invicta; conditions: for LC50 / mortality at 1.43 µg/mL: Solenopsis invicta
Procedure: A 250-ml glass flask (the whole volume is 280 ml) was used to house worker ants in fumigant toxicity bioassays. Two micro-liter of acetone solution of the tested compound was applied onto a paraffin film, which was used to seal the flask with ants. The treated spot of the paraffin film faced the inside of the flask. The upper part of the flask was coated with Fluon® to prevent ants from contacting the test material. Two experiments were conducted. […] LC50 value was established using 5 dosages. Each dosage was replicated 3 times for each of 3 colonies. Each replicate consisted of 15 to 26 ants. Ants that could not stand by themselves were considered dead. Dead ants were counted after 24 h.

H. halys eggs = assay: Ovicidal toxicity, direct spray on eggs; format: in vivo; conditions: eggs sprayed, 10 days
Text: Ovicidal toxicities of MB and some compounds of formula 1: The aqueous solutions of one of the compounds of formula 1 with designated concentrations with different concentrations of active ingredient (AI) were separately stored in glass spray bottles according to a published procedure (Cuthbertson 2014). The eggs (10 for H. halys and 100 for P. xylostella) were laid on filter papers in Petri dishes. Different aqueous insecticidal solutions were sprayed on the surfaces of different eggs three times (˜0.5 mL) to completely cover the treatment areas. Then the Petri dishes were covered with lids and maintained in a fume hood for 10 days. The Petri dishes were then inspected for presence of nymph/larvae development or numbers of unhatched eggs.

[3] = 24 h, read-out: mean mortality, dosage 1.43 μg/ml, 24 h

SMILES	LC50 (95% CL) (L. dispar larvae)	LC50 (95% CL) (H. halys nymphs; 2nd stage nymphs, 24 hr)	LC50 (95% CL) (H. halys nymphs; 3rd stage nymphs, 24 hr)	Adults (D. suzukii)	Larvae (D. suzukii)	Pupae (D. suzukii)	larvicidal toxicity against L. dispar (in words) (L. dispar larvae)	toxicity against H. halys nymphs (in words) (H. halys nymphs; in vivo)	LC50 (95% CL) (H. halys eggs)	mortality at 1.43 µg/mL (S. invicta workers [2]; [3])	also measured
C/C(=N\C#N)N(C)Cc1ccc(Cl)nc1 [AP, acetamiprid, reference compound]	0.221 (0.167-0.291) mg/cm^2	0.257 (0.169-0.340) μL/vial	0.475 (0.301-0.641) μL/vial	–	–	–	–	–	–	–	LC50 (95% CL) (L. dispar larvae; listed as acetamiprid): 0.221 mg/cm^2; LC50 (95% CL) (H. halys nymphs; 5th stage nymphs, 24 hr): 1.414 (1.165-1.642) μL/vial
O=C(OCc1ccccc1)c1ccccc1 [BB, benzyl benzoate]	–	–	–	40.0(8.4)	5.7(0.7)	40.0(5.8)	did not show any toxicities	deficient toxicities	–	–	insecticidal toxicity against D. suzukii (in words) (D. suzukii; 1% concentration on 4 days pre-infested blueberries, 10 days incubation): poor toxicities; contact toxicity against S. invicta (in words) (S. invicta workers [1]; in vivo): potent contact toxicities; LC50 (95% CL) (H. halys nymphs; in vivo): 5.619 (3.028-44.599) μL/vial
CCOC(=O)c1ccccc1 [EB, ethyl benzoate]	0.115 (0.107-0.123) mg/cm^2	–	1.604 (1.468-1.756) μL/vial	0	0	0	–	–	0.014 (0.010-0.019) mg/cm^2	–	LC50 (S. invicta workers [2]; 24 h, colony 1, 24 h, read-out: LC50): 0.89 µg/mL (≈ 5.93 µM); LC50 (S. invicta workers [2]; 24 h, colony 2, 24 h, read-out: LC50): 0.76 µg/mL (≈ 5.06 µM); LC50 (S. invicta workers [2]; 24 h, colony 3, 24 h, read-out: LC50): 1.14 µg/mL (≈ 7.59 µM); mortality at 1.43 µg/mL (S. invicta workers [2]; 24 h, dosage 1.43 μg/ml, 24 h, read-out: mean mortality): ~100%; LC50 (S. invicta workers [2]; 24 h, mean over colonies, 24 h, read-out: mean LC50 value): 0.93 µg/mL (≈ 6.19 µM); LD50 (S. invicta workers [1]; colony 1, 24 h): 164.32 μg/ant; LD50 (S. invicta workers [1]; colony 2, 24 h): 129.62 μg/ant; LD50 (S. invicta workers [1]; colony 3, 24 h): 126.53 μg/ant
COC(=O)c1ccccc1Cl [M2CB, methyl 2-chlorobenzoate]	0.130 (0.097-0.159) mg/cm^2	1.302 (1.137-1.610) μL/vial	–	0	0	0	–	–	0.011 (0.008-0.013) mg/cm^2	70 to 80%	LC50 (S. invicta workers [2]; 24 h, colony 1, 24 h): 0.89 µg/mL (≈ 5.22 µM); LC50 (S. invicta workers [2]; 24 h, colony 2, 24 h): 0.77 µg/mL (≈ 4.51 µM); LC50 (S. invicta workers [2]; 24 h, colony 3, 24 h): 0.56 µg/mL (≈ 3.28 µM); mean mortality (S. invicta workers [2]; dosage 1.43 μg/ml, 24 h): 79.4%
COC(=O)c1ccccc1C [M2MB, methyl 2-methylbenzoate]	0.155 (0.134-0.174) mg/cm^2	0.974 (0.827-1.109) μL/vial	–	0	0	0	–	–	0.014 (0.005-0.027) mg/cm^2	70 to 80%	fumigant toxicity against S. invicta (in words) (S. invicta workers [2]; in vivo): significantly reduced
COC(=O)c1ccccc1[N+](=O)[O-] [M2NB, methyl 2-nitrobenzoate]	–	–	–	0	0	0	did not show any toxicities	ineffective	0.010 (0.002-0.019) mg/cm^2	0%	–
